Reference: PubChem BioAssay AID330 (DTP/NCI, 2004)
Where “and” joins values, the source holds several entries; their conditions need not be identical. Equal values may be shown once. Toxic doses and inconclusive results are not listed. How the source made its calls: active means survival T/C of 150% or more; inactive means T/C below 125% in these data.

Tested on: P388 leukemia ip, CD2F1 mice, survival T/C
Assay: NCI In Vivo Anticancer Drug Screen. Data for tumor model P388 Leukemia (intraperitoneal) in CD2F1 (CDF1) mice
Settings: endpoint: median survival time, higher = longer survival
Summary of the method: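 Mice carrying the transplanted tumor received test compound or vehicle. Survival was recorded in each group, and the value is the treated-group measurement divided by that of the vehicle-treated control group.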

[1] = dose: 100.0 mg/kg/injection, schedule: Q01DX001 (ip), vehicle: saline with Tween-80
[2] = dose: 50.0 mg/kg/injection, schedule: Q01DX009 (ip), vehicle: Klucel (hydroxypropylcellulose) (HPC)
[3] = dose: 100.0 mg/kg/injection, schedule: Q01DX009 (ip), vehicle: Klucel (hydroxypropylcellulose) (HPC)
[4] = dose: 200.0 mg/kg/injection, schedule: Q01DX009 (ip), vehicle: Klucel (hydroxypropylcellulose) (HPC)
[5] = dose: 25.0 mg/kg/injection, schedule: Q01DX009 (ip), vehicle: Klucel (hydroxypropylcellulose) (HPC)
[6] = dose: 50.0 mg/kg/injection, schedule: Q01DX005 (ip), vehicle: saline with Tween-80
[7] = dose: 100.0 mg/kg/injection, schedule: Q01DX005 (ip), vehicle: saline with Tween-80
[8] = dose: 50.0 mg/kg/injection, schedule: Q01DX009 (ip), vehicle: saline
[9] = dose: 100.0 mg/kg/injection, schedule: Q01DX009 (ip), vehicle: saline
[10] = dose: 200.0 mg/kg/injection, schedule: Q01DX009 (ip), vehicle: saline
[11] = dose: 60.0 mg/kg/injection, schedule: Q01DX005 (ip), vehicle: saline with Tween-80
[12] = dose: 120.0 mg/kg/injection, schedule: Q01DX005 (ip), vehicle: saline with Tween-80
[13] = dose: 25.0 mg/kg/injection, schedule: Q01DX009 (ip), vehicle: saline
[14] = dose: 50.0 mg/kg/injection, schedule: Q01DX005 (ip), vehicle: Klucel (hydroxypropylcellulose) (HPC)
[15] = dose: 100.0 mg/kg/injection, schedule: Q01DX005 (ip), vehicle: Klucel (hydroxypropylcellulose) (HPC)
[16] = dose: 200.0 mg/kg/injection, schedule: Q01DX005 (ip), vehicle: Klucel (hydroxypropylcellulose) (HPC)
[17] = dose: 100.0 mg/kg/injection, schedule: Q04DX003 (ip), vehicle: saline with Tween-80
[18] = dose: 12.5 mg/kg/injection, schedule: Q01DX009 (ip), vehicle: saline

Measured: T/C

O=c1c2cc(Cl)cc(Cl)c2nc2n1S(=O)(=O)c1ccccc1N2c1ccccc1
inactive: [1] 94 % of control | dose: 200.0 mg/kg/injection, schedule: Q01DX001 (ip), vehicle: saline with Tween-80 91 % of control | dose: 400.0 mg/kg/injection, schedule: Q01DX001 (ip), vehicle: saline with Tween-80 95 % of control

O=C(CCn1c(CN2CCN(C/C=C/c3ccccc3)CC2)nc2ccccc21)c1ccccc1
inactive: [2] 104 % of control | [3] 100 % of control | [4] 111 % of control

CP(=O)(NN)c1ccccc1 (stereo not given)
inactive: dose: 12.5 mg/kg/injection, schedule: Q01DX009 (ip), vehicle: water 89 % of control | dose: 25.0 mg/kg/injection, schedule: Q01DX009 (ip), vehicle: water 96 % of control | dose: 50.0 mg/kg/injection, schedule: Q01DX009 (ip), vehicle: water 101 % of control

COCN1C(=O)CN=C(c2ccccc2)c2cc(NO)ccc21
inactive: dose: 12.5 mg/kg/injection, schedule: Q01DX009 (ip), vehicle: Klucel (hydroxypropylcellulose) (HPC) 105 % of control | [5] 105 % of control | [2] 100 % of control and 106 % of control

CC[C@H]1C[C@H](Cc2ccccc2)CC[C@H]1N1CCCC1
inactive: [6] 101 % of control | [7] 104 % of control

CCOC(=O)C(CC(=O)O)=C(c1ccccc1)c1ccccc1
inactive: [8] 107 % of control | [9] 100 % of control | [10] 107 % of control

CCCCNC(=O)C(C)OC(C)=O (stereo not given)
inactive: [6] 96 % of control | [7] 99 % of control | dose: 200.0 mg/kg/injection, schedule: Q01DX005 (ip), vehicle: saline with Tween-80 96 % of control

Cc1cccc(C2=NC(=C3CCCCC3)C(=O)O2)c1
inactive: [11] 101 % of control | [12] 100 % of control | dose: 240.0 mg/kg/injection, schedule: Q01DX005 (ip), vehicle: saline with Tween-80 100 % of control

Cc1n[nH]c(=O)n(/N=C/c2ccc(N(C)C)cc2)c1=O
inactive: dose: 60.0 mg/kg/injection, schedule: Q01DX005 (ip), vehicle: Klucel (hydroxypropylcellulose) (HPC) 98 % of control | dose: 120.0 mg/kg/injection, schedule: Q01DX005 (ip), vehicle: Klucel (hydroxypropylcellulose) (HPC) 97 % of control

S=C(Nc1ccc(Cl)c(Cl)c1)SC1CCCCC1
inactive: [13] 107 % of control | [8] 91 % of control | dose: 50.0 mg/kg/injection, schedule: Q01DX009 (ip), vehicle: suspension in saline 105 % of control | [9] 100 % of control | dose: 100.0 mg/kg/injection, schedule: Q01DX009 (ip), vehicle: suspension in saline 115 % of control | [10] 123 % of control | dose: 200.0 mg/kg/injection, schedule: Q01DX009 (ip), vehicle: suspension in saline 120 % of control

O=C(c1ccc(F)cc1)C1CCN(CCCn2c(=O)[nH]c3ccccc32)CC1
inactive: [8] 100 % of control | [9] 101 % of control | [10] 100 % of control

N#C/C(=C/c1ccccc1)CBr
inactive: [1] 95 % of control

Cn1nnc(-c2ccccc2)n1
inactive: dose: 100.0 mg/kg/injection, schedule: Q04DX002 (ip), vehicle: saline with Tween-80 107 % of control | dose: 200.0 mg/kg/injection, schedule: Q04DX002 (ip), vehicle: saline with Tween-80 102 % of control | dose: 400.0 mg/kg/injection, schedule: Q04DX002 (ip), vehicle: saline with Tween-80 112 % of control

O=C1C2=C(C(=O)c3cnccc31)C1C=CC2CC1 (stereo not given)
inactive: dose: 25.0 mg/kg/injection, schedule: Q01DX005 (ip), vehicle: DMSO 98 % of control | dose: 50.0 mg/kg/injection, schedule: Q01DX005 (ip), vehicle: DMSO 92 % of control and 98 % of control | [14] 106 % of control | dose: 100.0 mg/kg/injection, schedule: Q01DX005 (ip), vehicle: DMSO 122 % of control | [15] 103 % of control | [16] 98 % of control

Cc1n[nH]c(=S)nc1C
inactive: dose: 12.5 mg/kg/injection, schedule: Q04DX003 (ip), vehicle: saline with Tween-80 100 % of control | dose: 25.0 mg/kg/injection, schedule: Q04DX003 (ip), vehicle: saline with Tween-80 93 % of control | dose: 50.0 mg/kg/injection, schedule: Q04DX003 (ip), vehicle: saline with Tween-80 100 % of control | [17] 95 % of control

OCCN(CCO)CC(O)COc1cccc2ccccc12 (stereo not given)
inactive: [18] 98 % of control and 116 % of control | [13] 110 % of control and 96 % of control | [8] 103 % of control and 107 % of control | [9] 104 % of control and 97 % of control | [10] 110 % of control and 115 % of control

c1cc(C2N3CCCN2CC3)ccn1 (stereo not given)
inactive: dose: 3.12 mg/kg/injection, schedule: Q01DX009 (ip), vehicle: saline 104 % of control | [18] 103 % of control | [13] 110 % of control

Cc1ccc2cccc(CC(=O)NN)c2c1
inactive: [11] 104 % of control | [12] 97 % of control

Nc1nc(Cl)c(N=Nc2ccccc2)c(=O)[nH]1
inactive: dose: 7.5 mg/kg/injection, schedule: Q01DX005 (ip), vehicle: saline with Tween-80 111 % of control | dose: 15.0 mg/kg/injection, schedule: Q01DX005 (ip), vehicle: saline with Tween-80 105 % of control | dose: 30.0 mg/kg/injection, schedule: Q01DX005 (ip), vehicle: saline with Tween-80 99 % of control and 108 % of control | [11] 101 % of control and 109 % of control

O=C1Oc2ccccc2OC1c1ccccc1 (stereo not given)
inactive: [2] 102 % of control | [3] 106 % of control | [4] 97 % of control

S=C(N/N=C/c1ccc2c(c1)OCO2)NC1CCCCC1
inactive: [2] 111 % of control | [3] 111 % of control | [4] 116 % of control

O=[N+]([O-])c1ccc(NCCO)c([N+](=O)[O-])c1
inactive: [17] 100 % of control | dose: 200.0 mg/kg/injection, schedule: Q04DX003 (ip), vehicle: saline with Tween-80 100 % of control | dose: 400.0 mg/kg/injection, schedule: Q04DX003 (ip), vehicle: saline with Tween-80 90 % of control

COc1c(Cl)ncnc1Cl
inactive: [5] 100 % of control | [2] 103 % of control | [3] 110 % of control | [4] 98 % of control

CC(C)(C)SC(=O)C1(C(OC(=O)c2ccccc2)c2ccccc2)CC1 (stereo not given)
inactive: dose: 100.0 mg/kg/injection, schedule: Q04DX003 (ip), vehicle: Klucel (hydroxypropylcellulose) (HPC) 96 % of control | dose: 200.0 mg/kg/injection, schedule: Q04DX003 (ip), vehicle: Klucel (hydroxypropylcellulose) (HPC) 100 % of control | dose: 400.0 mg/kg/injection, schedule: Q04DX003 (ip), vehicle: Klucel (hydroxypropylcellulose) (HPC) 89 % of control

N#Cc1c(C(F)(F)F)cc(-c2cccs2)nc1SC(C(=O)Nc1cc(C(F)(F)F)cc(C(F)(F)F)c1)c1ccccc1 (stereo not given)
inactive: [14] 106 % of control | [15] 88 % of control | [16] 90 % of control

CC(C)(CCl)C(=O)NN=C(c1ccccc1)c1ccccc1
inactive: dose: 50.0 mg/kg/injection, schedule: Q01DX009 (ip), vehicle: saline with Tween-80 107 % of control | dose: 100.0 mg/kg/injection, schedule: Q01DX009 (ip), vehicle: saline with Tween-80 107 % of control | dose: 200.0 mg/kg/injection, schedule: Q01DX009 (ip), vehicle: saline with Tween-80 110 % of control

O=[n+]1c2c(n([O-])c3ccccc31)-c1cccc3cccc-2c13
inactive: dose: 12.5 mg/kg/injection, schedule: Q01DX010 (ip), vehicle: saline 100 % of control | dose: 25.0 mg/kg/injection, schedule: Q01DX010 (ip), vehicle: saline 100 % of control | dose: 50.0 mg/kg/injection, schedule: Q01DX010 (ip), vehicle: saline 100 % of control | dose: 100.0 mg/kg/injection, schedule: Q01DX010 (ip), vehicle: saline 100 % of control

O=c1[nH][nH]c(=O)c2c1CCC2
inactive: dose: 6.25 mg/kg/injection, schedule: Q01DX009 (ip), vehicle: distilled water + Tween-80 100 % of control | dose: 12.5 mg/kg/injection, schedule: Q01DX009 (ip), vehicle: distilled water + Tween-80 100 % of control | dose: 25.0 mg/kg/injection, schedule: Q01DX009 (ip), vehicle: distilled water + Tween-80 100 % of control | dose: 50.0 mg/kg/injection, schedule: Q01DX009 (ip), vehicle: distilled water + Tween-80 107 % of control | dose: 100.0 mg/kg/injection, schedule: Q01DX009 (ip), vehicle: distilled water + Tween-80 103 % of control | dose: 200.0 mg/kg/injection, schedule: Q01DX009 (ip), vehicle: distilled water + Tween-80 100 % of control
